Test [1] has as its system carrageenan-induced edema. In words: carrageenan edema test in rats. Conditions: for change in vivo at 80 mg/kg: Rattus norvegicus, po, 80 mg/kg p.o., 30 min before carrageenan, edema weight 3 h after, vs control, preliminary, read-out: Potentiation of the carrageenan edema, %; for significant potentiation of the carrageenan edema: dose within the range 10-160 mg/kg p.o. Type of test: in vivo, rat (female Sprague-Dawley). In short, it runs like this:
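Female Sprague-Dawley rats (110-120 g, ≥10 per group) received compound intragastrically in aqueous methocel 30 min before plantar carrageenan injection into the right hind paw. At 3 h, right minus left paw weight gave edema weight, expressed as percent of methocel controls.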
(In general: The carrageenan paw model is a standard test of acute inflammation.)

The subject of test [2] is delayed hypersensitivity reaction (adjuvant arthritis, Mycobacterium butyricum). Briefly: adjuvant arthritis test in rats. The class given is in vivo, rat (male Lister hooded). Conditions: for change in vivo at 20 mg/kg / change in vivo at 40 mg/kg / change in vivo at 10 mg/kg: Rattus norvegicus, po, 336 h, read-out: Increase of the volume of the left foot; for change in vivo at 20 mg/kg: 20 mg/kg p.o.; for change in vivo at 10 mg/kg: 10 mg/kg p.o. The source says: The adjuvant arthritis test in rats produces a measureable extent of a delayed hypersensitivity reaction and can be used for a determination of variations in the extent of the delayed hypersensitivity reaction upon drug administration to the host. An increase in the extent of the delayed hypersensitivity reaction upon drug administration consequently indicates enhanced cell-mediated immunity in the host.
This example illustrates the effect of the compounds of the general formula I in the adjuvant arthritis test in rats.
The adjuvant arthritis test in rats produces a delayed hypersensitivity reaction and can be used for a determination of variations of the delayed hypersensitivity reaction upon drug administration to the host. An increase in the extent of the delayed hypersensitivity reaction upon drug administration consequently indicates enhanced cell-mediated immunity in the host.
A modification of a method described in (12) was used. Male Lister hooded rats weighing 250-275 g were used. At least 9 animals were used in each experimental group.
A single intradermal injection of 0.5 mg/0.1 ml heat killed Mycobacterium butyricum suspended in sterile liquid paraffinum was given into the right hind foot of all rats. After this injection, day 0, the volume of the left hind paw, measured by water displacement, was followed to the end of the experiment.
The substances suspended in aqueous methocel solution 10 ml/kg were given intragastrically. The control group was given methocel solution 10 ml/kg. The different groups of animals were thus treated once daily from day -4 to day 14. The effect of the substances was assessed by the left foot volume expressed in percent after comparison with the control groups.

Test [3] relates to delayed hypersensitivity reaction (pertussis vaccine pleurisy). In words: pertussis vaccine pleurisy test in rats. Type of test: in vivo, rat (male Sprague-Dawley). Conditions: for change in vivo at 10 mg/kg: Rattus norvegicus, po, 48 h, read-out: Enhancement of the delayed hypersensitivity reaction assessed by the exudate vol. In short, it runs like this: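 Male Sprague-Dawley rats (250-275 g, ≥10/group) sensitized day 0 with heat-killed B. pertussis in Freund's incomplete adjuvant into hind and forepaw, challenged intrapleurally day 12. Compounds in aqueous methocel given intragastrically once daily days 10-13. Pleural exudate volume measured day 14, expressed as percent of methocel control.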

The mark [4] stands for this setting: once daily day -4 to day 14, vs control, preliminary.
Where [5] appears, read: 40 mg/kg p.o., once daily day -4 to day 14, vs control, preliminary.
[6] abbreviates: 10 mg/kg p.o., once daily day 10 to day 13, vs control, preliminary.

Like-named read-outs stand apart in the source and are kept apart here.

As for `Cn1c(=O)c(C(=O)Nc2nccs2)c(O)c2ccccc21` [7:1, N-(2-thiazolyl)-1,2-dihydro-4-hydroxy-1-methyl-2-oxo-quinoline-3-carboxamide], in test [1], the change in vivo at 80 mg/kg turned out to be 84%. The change in vivo at 20 mg/kg in test [2] (setting [4]) worked out at 44%. In test [2] (setting [5]), the change in vivo at 40 mg/kg is 35%. Further, the change in vivo at 10 mg/kg in test [3] (setting [6]) is 81%.

As to `CCn1c(=O)c(C(=O)Nc2ccccc2)c(O)c2ccccc21` [1:10, N-phenyl-1,2-dihydro-1-ethyl-4-hydroxy-2-oxo-quinoline-3-carboxamide], the change in vivo at 80 mg/kg in test [1] is 68%. In addition, the “significant potentiating effect in the adjuvant arthritis test” value in test [2] (40 mg/kg p.o.) is “significant potentiating effect”. Also, in test [3] (setting [6]), the change in vivo at 10 mg/kg came to 30%.

With `COc1ccc(N(C)C(=O)c2c(O)c3cc(OC)ccc3n(C)c2=O)cc1` [21:14, N-(4-methoxyphenyl)-N-methyl-1,2-dihydro-4-hydroxy-6-methoxy-1-methyl-2-oxo-quinoline-3-carboxamide], in test [1], the “significant potentiation of the carrageenan edema” value (“significant potentiation” for short) is on record as “potentiate significantly”. Besides, the “significant potentiating effect in the adjuvant arthritis test” value in test [2] (40 mg/kg p.o.) was “significant potentiating effect”. Besides, the “significant enhancing effect in the pertussis vaccine pleurisy test” value in test [3] (10 mg/kg p.o.) is “significant enhancing effect”.

For the compound `CN(C(=O)c1c(O)c2ccccc2n(C)c1=O)c1ccc(F)cc1` [21:35, N-(4-fluorophenyl)-N-methyl-1,2-dihydro-4-hydroxy-1-methyl-2-oxo-quinoline-3-carboxamide], in test [1], the “significant potentiation” value is “potentiate significantly”. In addition, the “significant potentiating effect in the adjuvant arthritis test” value in test [2] (40 mg/kg p.o.) is recorded as “significant potentiating effect”. Further, the “significant enhancing effect in the pertussis vaccine pleurisy test” value in test [3] (10 mg/kg p.o.) is reported as “significant enhancing effect”.

Consider `Cn1c(=O)c(C(=O)Nc2ccccc2)c(O)c2c(F)cccc21` [1:19, N-phenyl-1,2-dihydro-5-fluoro-4-hydroxy-1-methyl-2-oxo-quinoline-3-carboxamide], for which, in test [1], the change in vivo at 80 mg/kg worked out at 67%. In addition, in test [2] (40 mg/kg p.o.), the “significant potentiating effect in the adjuvant arthritis test” value is “significant potentiating effect”. Moreover, the “significant enhancing effect in the pertussis vaccine pleurisy test” value in test [3] (10 mg/kg p.o.) was “significant enhancing effect”.

`Cn1c(=O)c(C(=O)Nc2ccc(CC(=O)O)cc2)c(O)c2ccccc21` [1:12, N-/4-carboxymethylphenyl/-1,2-dihydro-4-hydroxy-1-methyl-2-oxo-quinoline-3-carboxamide]: the change in vivo at 80 mg/kg in test [1] was found to be 29%. Also, the “significant potentiating effect in the adjuvant arthritis test” value in test [2] (40 mg/kg p.o.) was “significant potentiating effect”. Besides, the change in vivo at 10 mg/kg in test [3] (setting [6]) was determined as 65%.

Take `Cn1c(=O)c(C(=O)Nc2ccccc2)c(O)c2ccccc21` [1:1, N-phenyl-1,2-dihydro-4-hydroxy-1-methyl-2-oxo-quinoline-3-carboxamide]: the change in vivo at 80 mg/kg in test [1] was 40%. For the same compound, the change in vivo at 20 mg/kg in test [2] (setting [4]) amounted to 50%. For the same compound, the change in vivo at 40 mg/kg in test [2] (setting [5]) was determined as 41%. Also, the change in vivo at 10 mg/kg in test [3] (setting [6]) amounted to 55%.

Turning to `COc1ccc2c(c1)c(O)c(C(=O)Nc1ccccc1)c(=O)n2C` [1:2, N-phenyl-1,2-dihydro-4-hydroxy-6-methoxy-1-methyl-2-oxo-quinoline-3-carboxamide], the change in vivo at 80 mg/kg in test [1] is 61%. For the same compound, in test [2] (40 mg/kg p.o.), the “significant potentiating effect in the adjuvant arthritis test” value was “significant potentiating effect”. For the same compound, the “significant enhancing effect in the pertussis vaccine pleurisy test” value in test [3] (10 mg/kg p.o.) is reported as “significant enhancing effect”.

Consider `COc1c(C(=O)Nc2ccccc2)c(=O)n(C)c2ccccc12` [6:1, N-phenyl-1,2-dihydro-4-methoxy-1-methyl-2-oxo-quinoline-3-carboxamide], for which the change in vivo at 80 mg/kg in test [1] amounted to 60%. The change in vivo at 40 mg/kg in test [2] (setting [5]) was 34%. Further, the change in vivo at 10 mg/kg in test [3] (setting [6]) amounted to 91%.

`CN(C)c1ccc(NC(=O)c2c(O)c3ccccc3n(C)c2=O)cc1` [1:11, N-/4-dimethylaminophenyl/-1,2-dihydro-4-hydroxy-1-methyl-2-oxo-quinoline-3-carboxamide]: the change in vivo at 80 mg/kg in test [1] is 76%. The change in vivo at 40 mg/kg in test [2] (setting [5]) came out at 45%. Moreover, the change in vivo at 10 mg/kg in test [3] (setting [6]) was found to be 37%.

With `CCN(C(=O)c1c(O)c2ccccc2n(C)c1=O)c1ccccc1` [21:5, N-ethyl-N-phenyl-1,2-dihydro-4-hydroxy-1-methyl-2-oxo-quinoline-3-carboxamide], the “significant potentiation” value in test [1] is “potentiate significantly”. For the same compound, the “significant potentiating effect in the adjuvant arthritis test” value in test [2] (40 mg/kg p.o.) was “significant potentiating effect”. The change in vivo at 10 mg/kg in test [3] (setting [6]) was determined as 29%.

For the compound `COc1cccc2c(O)c(C(=O)Nc3ccccc3)c(=O)n(C)c12` [1:22, N-phenyl-1,2-dihydro-4-hydroxy-8-methoxy-1-methyl-2-oxo-quinoline-3-carboxamide], the change in vivo at 80 mg/kg in test [1] was found to be 58%. In addition, the “significant potentiating effect in the adjuvant arthritis test” value in test [2] (40 mg/kg p.o.) was “significant potentiating effect”. Moreover, the “significant enhancing effect in the pertussis vaccine pleurisy test” value in test [3] (10 mg/kg p.o.) is recorded as “significant enhancing effect”.

In the case of `O=C(Nc1ccccc1)c1c(O)c2cccc3c2n(c1=O)CC3` [2:2, N-phenyl-1,2-dihydro-1,8-ethylene-4-hydroxy-2-oxo-quinoline-3-carboxamide], the change in vivo at 80 mg/kg in test [1] amounted to 43%. In test [2] (setting [5]), the change in vivo at 40 mg/kg was 40%. The change in vivo at 10 mg/kg in test [3] (setting [6]) amounted to 64%.

With `COc1ccc(N(C)C(=O)c2c(O)c3ccccc3n(C)c2=O)cc1` [21:6, N-(4-methoxyphenyl)-N-methyl-1,2-dihydro-4-hydroxy-1-methyl-2-oxo-quinoline-3-carboxamide], in test [1], the change in vivo at 80 mg/kg was found to be 38%. Moreover, the change in vivo at 10 mg/kg in test [2] (setting [4]) is 41%; in test [3] (setting [6]), 90%.

For the compound `CN(C(=O)c1c(O)c2ccccc2n(C)c1=O)c1ccccc1` [1:43, N-phenyl-N-methyl-1,2-dihydro-4-hydroxy-1-methyl-2-oxo-quinoline-3-carboxamide], the change in vivo at 80 mg/kg in test [1] was 84%. In addition, the “significant potentiating effect in the adjuvant arthritis test” value in test [2] (40 mg/kg p.o.) was “significant potentiating effect”. Further, the results for the change in vivo at 10 mg/kg in test [2] (setting [4]) and in test [3] (setting [6]) were 48% and 70%, respectively.

Turning to `Cn1c(=O)c(C(=O)Nc2ccc(Cl)cc2)c(O)c2ccccc21` [1:9, N-/4-chlorophenyl/-1,2-dihydro-4-hydroxy-1-methyl-2-oxo-quinoline-3-carboxamide], the change in vivo at 80 mg/kg in test [1] was 48%. Moreover, the “significant potentiating effect in the adjuvant arthritis test” value in test [2] (40 mg/kg p.o.) is recorded as “significant potentiating effect”. Besides, the “significant enhancing effect in the pertussis vaccine pleurisy test” value in test [3] (10 mg/kg p.o.) is “significant enhancing effect”.

As to `CCN(C(=O)c1c(O)c2cccc3c2n(c1=O)CCC3)c1ccccn1` [21:33, N-ethyl-N-2-pyridyl-1,2-dihydro-4-hydroxy-2-oxo-1,8-trimethylene-quinoline-3-carboxamide], the “significant potentiating effect in the adjuvant arthritis test” value in test [2] (40 mg/kg p.o.) is recorded as “significant potentiating effect”. Moreover, the “significant enhancing effect in the pertussis vaccine pleurisy test” value in test [3] (10 mg/kg p.o.) is “significant enhancing effect”.

Regarding `CC(C)(S)[C@@H](N)C(=O)O` [Penicillamine, penicillamine, reference compound], the change in vivo at 40 mg/kg in test [2] is 0%. In addition, in test [3], the change in vivo at 10 mg/kg is 17%.

Take `CN(C)c1ccc(N(C)C(=O)c2c(O)c3cccc4c3n(c2=O)CC4)cc1` [21:30, N-(4-dimethylaminophenyl)-N-methyl-1,2-dihydro-1,8-ethylene-4-hydroxy-2-oxo-quinoline-3-carboxamide]: the “significant potentiating effect in the adjuvant arthritis test” value in test [2] (40 mg/kg p.o.) is “significant potentiating effect”. The “significant enhancing effect in the pertussis vaccine pleurisy test” value in test [3] (10 mg/kg p.o.) is given as “significant enhancing effect”.

Source of the values: patent US4738971A, “N-aryl-1,2-dihydro-4-substituted-1-alkyl-2-oxo-quinoline-3-carboxamides” (priority 1981, dated 1988).
